From PubChem BioAssay AID652006 (Sanford-Burnham Center for Chemical Genomics, 2013)
The source made the active and inactive calls.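 The calls were made as follows: active = compounds that inhibit the LYP-1 phosphatase with IC50 at or below 20 µM; inactive = the rest.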

Target: Tyrosine-protein phosphatase non-receptor type 22 (Homo sapiens) (UniProt Q9Y2R2)
Experiment: LYP phosphatase inhibition for selectivity, dose response, selectivity assay for LMPTP inhibitor project, biochemical, fluorescence, LYP catalytic domain (AID 652006)
Settings: His-LYP catalytic domain, OMFP fluorescence, 50 min

Chain of Tyrosine-protein phosphatase non-receptor type 22 (Homo sapiens) (Q9Y2R2 whole entry, looked up, the tested form may be a part): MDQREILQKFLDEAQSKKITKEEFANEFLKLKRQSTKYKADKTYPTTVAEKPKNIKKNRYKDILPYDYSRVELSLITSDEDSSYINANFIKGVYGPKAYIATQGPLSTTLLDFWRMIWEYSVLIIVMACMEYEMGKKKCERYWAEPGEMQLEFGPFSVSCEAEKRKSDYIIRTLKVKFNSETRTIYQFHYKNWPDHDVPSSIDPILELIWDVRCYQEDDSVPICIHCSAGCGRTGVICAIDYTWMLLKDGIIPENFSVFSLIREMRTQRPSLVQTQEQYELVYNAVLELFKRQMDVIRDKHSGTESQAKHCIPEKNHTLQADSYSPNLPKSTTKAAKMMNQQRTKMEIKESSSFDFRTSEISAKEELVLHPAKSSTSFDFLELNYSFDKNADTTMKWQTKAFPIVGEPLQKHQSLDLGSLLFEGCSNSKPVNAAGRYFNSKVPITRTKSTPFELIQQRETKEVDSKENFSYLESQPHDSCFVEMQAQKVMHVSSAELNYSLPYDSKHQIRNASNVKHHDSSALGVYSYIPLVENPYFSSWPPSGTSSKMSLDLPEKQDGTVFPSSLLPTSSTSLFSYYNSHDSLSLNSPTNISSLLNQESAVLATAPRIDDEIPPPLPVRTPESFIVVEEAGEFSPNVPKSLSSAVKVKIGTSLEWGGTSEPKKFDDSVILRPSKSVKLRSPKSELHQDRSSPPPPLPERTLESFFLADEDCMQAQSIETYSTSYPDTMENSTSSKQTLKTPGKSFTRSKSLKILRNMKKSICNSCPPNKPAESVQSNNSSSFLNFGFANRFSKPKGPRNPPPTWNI

Q: How did the IC50 turn out when `Clc1cccc(Cl)c1Cn1cnc(=NCc2ccco2)c2[nH]cnc21` was run?
A: > 80 µM (inactive)
